From patent publication US3950427A, “Araliphatic ketones and carbinols” (Boehringer Ingelheim GmbH, priority 1973, dated 1976)
Like-named read-outs stand apart in the source and are kept apart here.

Columns and labels:
Format in all cases: in vivo, rat (male FW 49)
[1] = tested on: Kaolin-induced edema of the hind paw of the rat; test: Kaolin-induced edema of the hind paw of the rat (anti-exudative effect); conditions: 30 minutes before inducing edema, swelling 5 hours after; for ED35: Rattus norvegicus, po, 5 h, read-out: Kaolin edema ED35 per os; for Kaolin edema ED35 per os: oral
Experimental: (§1) The compunds were tested for their anti-exudative effect on Kaolin-induced edema and carrageenin-induced edema in the hind paw of the rat after oral administration to the rat.
a. Kaolin-induced edema of the hind paw of the rat
(§2) The kaolin edema was induced according to the method given by Hillebrecht [Arzneimittel-Forsch. 4, 607 (1954)] by subplanar injection of 0.05 ml of a 10% suspension of kaolin in a 0.85% sodium chloride solution. Measurement of the thickness of the paws was effected using the technique of Doepfner and Cerletti [Int. Arch. Allergy Immunol. 12, 89 (1958)].
(§3) The test compound was administered orally to male FW 49 rats weighing 120-150 gm by means of an esophageal tube 30 minutes before inducing the edema. 5 hours after inducing the edema the average size of the swelling in the rats treated with the test compound was compared with the size of the swelling in blind-treated control animals. By graphic extrapolation the dose leading to a 35% of the swelling (ED35) was calculated from the percentage reduction in the size of the swelling caused by the administration of different doses.

[2] = tested on: Carrageenin-induced edema of the hind paw of the rat; test: Carrageenin-induced edema of the hind paw of the rat (anti-exudative effect); conditions: 60 minutes before provocation, swelling 3 hours after; for ED35: Rattus norvegicus, po, 3 h, read-out: Carrageenin edema ED35 per os; for Carrageenin edema ED35 per os: oral
Experimental: as §1, §3
b. Carrageenin-induced edema of the hind paw of the rat
(§4) The carrageenin edema was induced according to the method of Winder et al. [Proc. Soc. exp. Biol. Med. 111, 544 (1962)] by subplanar injection of 0.05 ml of a 1% solution of carrageenin in a 0.85% solution of sodium chloride. The test compound was administered 60 minutes before the provocation of the edema.
(§5) For the calculation of the reductive effect on the edema, the size of the swelling was measured 3 hours after the provocation of the edema. All other details were the same as described above in the case of the kaolin edema.

[3] = tested on: Kaolin edema and carrageenin edema of the hind paw of the rat; test: Average value of kaolin edema and carrageenin edema; conditions: per os, Table I; for ED35: Rattus norvegicus
Experimental: as §1, §2, §3, §4, §5

Adjuvant arthritis-rat = test: Adjuvant arthritis test on rats (M.butyricum); conditions: po, 504 h, 21st day, once daily for 20 days by esophageal tube
Experimental: The adjuvant arthritis tests on rats were performed in analogy to the procedure described by Rosenthale and Nagra [Proc. Soc. exp. Biol. Med. 125, 149 (1967)].
Male FW 49-rats were given a subplantar injection of 0.1 ml of a 1% suspension of M.butyricum in viscous paraffin oil in a hind paw. The test compound was administered, beginning with the M.butyricum injection, once daily for 20 days by esophageal tube.
On the 21st day after inducing the arthritis, the volumes of the right paw (non-specific primary reaction at the place of injection) and the left paw (immunologically predicated specific secondary reaction) of the animals treated with the test compound were compared with those of the blind-treated control animals. From the swelling reduction obtained with the various doses, an ED50 was graphically determined.

[4] = left paw volume, read-out: Adjuvant arthritis-rat ED50 per os, Secondary reaction
[5] = right paw volume, read-out: Adjuvant arthritis-rat ED50 per os, Primary reaction

Compound | ED35 ([1]; Table I) [mg/kg] | ED35 ([2]; Table I) [mg/kg] | ED35 [3] [mg/kg] | also measured
CC(=O)/C=C(\C)c1ccc([C@@H]2CCCC[C@H]2C)cc1 (relative stereo) [BB, (e,e)-4-[4-(2-methyl-cyclohexyl)-phenyl]-3-pentene-2-one] | 19 | 13 | 16 | 
CC(O)/C=C/c1ccc(-c2ccccc2)c(F)c1 (centres unmarked) [A, (e)-4-(2-fluoro-4-biphenylyl)-3-butene-2-ol] | 15 | 12.4 | 13.7 | 
CC(O)CC(C)c1ccc(C2CCCCC2)c(Br)c1 (centres unmarked) [AA, 4-(3-bromo-4-cyclohexyl-phenyl)-2-pentanol] | 28 | 18.5 | 23.2 | 
CC(O)CCc1ccc(-c2ccccc2)c(F)c1 (centres unmarked) [B, 4-(2-fluoro-4-biphenylyl)-2-butanol] | 16 | 12 | 14 | 
CC(O)CCCCCCc1ccc(-c2ccccc2F)cc1 (centres unmarked) [C, 8-(2'-fluoro-4-biphenylyl)-2-octanol] | 15 | 17 | 16 | 
CC(=O)CC(C)c1ccc(C2CCCCC2C)cc1 (centres unmarked) [CC, (e)-4-[4-(2-methyl-cyclohexyl)-phenyl]-2-pentanone] | 29 | 21 | 25 | 
CC(=O)CCCCc1ccc(-c2ccccc2F)cc1 [D, 6-(2'-fluoro-4-biphenylyl)-2-hexanone] | 9 | 10.5 | 9.75 | 
CC(=O)/C=C(\C)c1ccc(CC(C)C)c(Cl)c1 [DD, (e)-4-(3-chloro-4-isobutyl-phenyl)-3-pentene-2-one] | 50 | 19 | 34.5 | 
CC(=O)CC(C)c1ccc(-c2ccccc2)cc1 (centres unmarked) [E, 4-(4-biphenylyl)-2-pentanone] | 21 | 15 | 18 | ED35 ([1]; Table II): 21 mg/kg; ED35 ([2]; Table II): 15 mg/kg; ED50 (Adjuvant arthritis-rat; [4]): < 4 mg/kg; ED50 (Adjuvant arthritis-rat; [5]): < 4 mg/kg
C/C(=C\C(C)O)c1ccc(CC(C)C)c(Cl)c1 (centres unmarked) [EE, (e)-4-(3-chloro-4-isobutyl-phenyl)-3-pentane-2-ol] | 54 | 52 | 53 | 
CC(=O)CCCCCCc1ccc(-c2ccccc2F)cc1 [F, 8-(2'-fluoro-4-biphenylyl)-2-octanone] | 9.8 | 14.5 | 12.2 | 
C/C(=C\C(C)O)c1ccc(C2CCCCC2)cc1 (centres unmarked) [FF, (e)-4-(4-cyclohexyl-phenyl)-3-pentene-2-ol] |  |  |  | Kaolin edema ED35 per os ([1]; Table I): 49 mgm/kg; Carrageenin edema ED35 per os ([2]; Table I): 35 mgm/kg; Average value ED35 [3]: 42 mgm/kg
CC(=O)/C=C(\C)c1ccc(-c2ccccc2)cc1 [G, (e)-4-(4-biphenylyl)-3-pentene-2-one] | 23.5 | 8.6 | 16.1 | 
CC(=O)/C=C(\C)c1ccc(-c2ccccc2F)cc1 [H, (e)-4-(2'-fluoro-4-biphenylyl)-3-pentene-2-one] | 37 | 8.9 | 22.9 | ED35 ([1]; Table II): 37 mg/kg; ED35 ([2]; Table II): 11 mg/kg; ED50 (Adjuvant arthritis-rat; [4]): < 1 mg/kg; ED50 (Adjuvant arthritis-rat; [5]): < 2 mg/kg
CC(O)CC(C)c1ccc(-c2ccccc2)c(F)c1 (centres unmarked) [I, 4-(2-fluoro-4-biphenylyl)-2-pentanol] | 17 | 16.5 | 16.8 | 
C/C(=C\C(C)O)c1ccc(-c2ccccc2F)cc1 (centres unmarked) [K, (e)-4-(2'-fluoro-4-biphenylyl)-3-pentene-2-ol] | 17.5 | 12.8 | 15.2 | ED35 ([1]; Table II): 17.5 mg/kg; ED35 ([2]; Table II): 17 mg/kg; ED50 (Adjuvant arthritis-rat; [4]): < 2 mg/kg; ED50 (Adjuvant arthritis-rat; [5]): < 1.5 mg/kg

Compound | ED35 ([1]; Table I) [mg/kg] | ED35 ([2]; Table I) [mg/kg] | ED35 [3] [mg/kg] | also measured
CC(=O)/C=C(\C)c1ccc(-c2ccccc2)c(Cl)c1 [L, (e)-4-(2-chloro-4-biphenylyl)-3-pentene-2-one] | 15.5 | 5.6 | 10.6 | 
C/C(=C\C(C)O)c1ccc(-c2ccccc2)c(Cl)c1 (centres unmarked) [M, (e)-4-(2-chloro-4-biphenylyl)-3-pentene-2-ol] | 26 | 23 | 24.5 | 
CC(=O)CC(C)c1ccc(-c2ccccc2)c(Cl)c1 (centres unmarked) [N, 4-(2-chloro-4-biphenylyl)-2-pentanone] | 31.5 | 16.5 | 24 | 
CC(O)CC(C)c1ccc(-c2ccccc2)c(Cl)c1 (centres unmarked) [O, 4(2-chloro-4-biphenylyl)-2-pentanol] | 48 |  |  | 
CC(=O)/C=C(\C)c1ccc(C2CCCCC2)c(Cl)c1 [P, (e)-4-(3-chloro-4-cyclohexyl-phenyl)-3-pentene-2-one] | 17 | 8.6 | 12.8 | ED35 ([1]; Table II): 17 mg/kg; ED35 ([2]; Table II): 8.6 mg/kg; ED50 (Adjuvant arthritis-rat; [4]): < 0.6 mg/kg; ED50 (Adjuvant arthritis-rat; [5]): < 0.7 mg/kg
CC(=O)CC(C)c1ccc(C2CCCCC2)c(Cl)c1 (centres unmarked) [Q, 4-(3-chloro-4-cyclohexyl-phenyl)-2-pentanone] | 5 | 2.5 | 3.75 | ED35 ([1]; Table II): 5 mg/kg; ED35 ([2]; Table II): 2.5 mg/kg; ED50 (Adjuvant arthritis-rat; [4]): < 0.2 mg/kg; ED50 (Adjuvant arthritis-rat; [5]): < 0.4 mg/kg
C/C(=C\C(C)O)c1ccc(C2CCCCC2)c(Cl)c1 (centres unmarked) [R, (e)-4-(3-chloro-4-cyclohexyl-phenyl)-3-pentene-2-ol] | 4.8 | 3.1 | 3.95 | ED35 ([1]; Table II): 4.8 mg/kg; ED35 ([2]; Table II): 3.1 mg/kg; ED50 (Adjuvant arthritis-rat; [4]): < 0.7 mg/kg; ED50 (Adjuvant arthritis-rat; [5]): < 0.3 mg/kg
CC(O)CC(C)c1ccc(C2CCCCC2)c(Cl)c1 (centres unmarked) [S, 4-(3-chloro-4-cyclohexyl-phenyl)-2-pentanol] | 7.6 | 7 | 7.3 | 
CC(=O)/C=C(\C)c1ccc(C2CCCCC2)cc1 [T, (e)-4-(4-cyclohexyl-phenyl)-3-pentene-2one] | 12.5 | 12 | 12.2 | 
CC(=O)CC(C)c1ccc(C2CCCCC2)cc1 (centres unmarked) [U, 4-(4-cyclohexyl-phenyl)-2-pentanone] | 15 |  |  | 
C/C(=C\C(C)O)c1ccc(C2CCCCC2)cc1 (centres unmarked) [V, (e)-4-(4-cyclohexyl-phenyl)-3-pentene-2-ol] |  |  |  | Kaolin edema ED35 per os ([1]; Table I): 13.3 mgm/kg; Carrageenin edema ED35 per os ([2]; Table I): 7.6 mgm/kg; Average value ED35 [3]: 10.45 mgm/kg
CC(O)CC(C)c1ccc(C2CCCCC2)cc1 (centres unmarked) [W, 4-(4-cyclohexyl-phenyl)-2-pentanol] | 26 |  |  | 
CC(=O)/C=C(\C)c1ccc(C2CCCCC2)c(Br)c1 [X, (e)-4-(3-bromo-4-cyclohexyl-phenyl)-3-pentene-2-one] | 22 | 22 | 22 | 
CC(=O)CC(C)c1ccc(C2CCCCC2)c(Br)c1 (centres unmarked) [Y, 4-(3-bromo-4-cyclohexyl-phenyl)-2-pentanone] | 13 |  |  | 
C/C(=C\C(C)O)c1ccc(C2CCCCC2)c(Br)c1 (centres unmarked) [Z, (e)-4-(3-bromo-4-cyclohexyl-phenyl)-3-pentene-2-ol] | 16 |  |  | 
